Experimental data from patent publication US10351598B2, “Peptide with anti-obesity and anti-diabetic efficacy and use thereof” (CAREGEN CO., LTD., priority 2016, dated 2019).
Where “and” joins values, the source holds several entries; their conditions need not be identical. Equal entries are not always repeated.

Tests used:
[1] = test system: CGI-58; experiment: CGI-58 RT-PCR; assay type: cell-based; settings: intracellular
Description: (§1) Total RNA was extracted using Qiagen RNeasy kit. For synthesis of single-stranded DNA from RNA, […] of RNA, […] of random hexamer, and DEPC-treated water were added, followed by reaction for 5 minutes at 65° C. 5× first strand buffer, 0.1 M DTT, 10 mM of dNTP, and reverse transcriptase were added to reach a total volume of […], followed by reaction at 42° C. for 1 hour. After heating at 95° C. for 5 minutes again, 10 ml of distilled water was added to make a final volume, […], of cDNA.
(§2) PCR was conducted by mixing 3 ml of cDNA, 10 pmole of CGI 58 gene-specific primer, 10× Tag buffer, 10 mM dNTP, and i-Tag DNA synthetase. PCR conditions were: 94° C. for 30 seconds, 55-56° C. for 30 seconds, and 72° C. for 30 seconds. Cycle number genes were analyzed in the conditions in which the PCR results could be exponentially amplified. 5 ml of PCR product was obtained, electrophoresed on 1% agarose gel, and stained with ethidium bromide.

[2] = test system: AMPK-α1; experiment: AMPK-α1 RT-PCR in insulin resistance conditions (TNF-α); assay type: cell-based; settings: reduced by TNF-α treatment, peptide treatment 16 hours
Description: as §1, §2
(§3) After the insulin resistance conditions were configured by TNF-α treatment, the peptide treatment was conducted for 16 hours, followed by collection and then the resultant product was collected and the changes of respective factors were examined by RT-PCR. RT-PCR conditions are the same as in example 3.

[3] = test system: adiponectin; experiment: Adiponectin RT-PCR in insulin resistance conditions (TNF-α); assay type: cell-based; settings: reduced by TNF-α treatment, peptide treatment 16 hours
Description: as §1, §2, §3

[4] = test system: C57BL/6J mice fed with a high-fat diet; experiment: Anti-diabetic efficacy evaluation (in vivo), blood glucose after oral glucose; design: blood glucose, individual animal / blood glucose, Mean: unit not given here; settings: for blood glucose, Mean / blood glucose, individual animal: 60% fat diet mice; for blood glucose increase by glucose: high-fat diet mice, compared with the NC group
Source text: 6-week-old C57BL/6J mice as experimental animals were purchased from Central Lab. Animal Inc. (Seoul, Korea), and then were used for experiments after acclimatization with a normal diet for 1 week. A high-fat feed was used from Research Diets, inc. (#product D12492).
The experimental animals were divided into a total of four groups, and three mice for each group were raised for 12 weeks.
In addition, the experimental animals were divided into a total of […], and three mice for each group were raised for 12 weeks.
After the pre-treatment with a peptide for 30 minutes, glucose (60 mg/300 ul distilled water) were orally administered, and then the blood glucose lowering effect over time was examined. The results are shown in FIGS. 6a to 6b and tables 5 and 6.

[5] = test system: GLUT4; experiment: GLUT4 RT-PCR in insulin resistance conditions (TNF-α); assay type: cell-based; settings: reduced by TNF-α treatment, peptide treatment 16 hours
Description: as §1, §2, §3

[6] = test system: 3T3-L1 cells; experiment: Oil red O staining (lipid accumulation inhibition); assay type: cell-based; settings: day 9 of differentiation induction
Description: In order to measure the lipid accumulation inhibitory effect by the peptides of the present invention, 3T3-L1 cells were seeded in 24-well plate at 2×10^4 cells/well, followed by culture, and then the medium was exchanged with a differentiation medium containing 10 ug/ml insulin, 0.1 uM dexamethasone, and 0.5 uM IBMX, followed by treatment with the peptides having different concentrations.
Thereafter, the medium was exchanged into a medium containing 10 ug/ml insulin every two days, and on day 9 of differentiation induction, an oil-red-red O staining assay was conducted.
The cells were washed with PBS, immobilized by the treatment with 4% para-form aldehyde for 10 minutes, washed with distilled water, and then cultured in 60% isopropanol for 5-10 minutes. The immobilized cells were stained with an oil red solution [1% Oil Red in isopropanol was diluted in dH2O in ratio of 6:4 (vol/vol)] for 30 minutes, and then again washed with PBS. The stained cells were observed by an optical microscope, followed by washing with distilled water, and 1 ml of 100% isopropanol was added thereto, followed by stirring at 4° C. The next day, quantification was conducted at 510 nm.

[7] = test system: mouse adipose tissue; experiment: Glycerol assay (lipolysis induction); assay type: cell-based; settings: compared with control group NC; for secretion of glycerol: mouse adipose tissue, cultured 48-72 hours with peptide
Source text: Adipocytes store extra energy in the form of triglycerides in lipid droplets, and when energy is needed, the triglycerides are broken down into fatty acids and glycerols by enzymes, such as adipose triglyceride lipase, HSL, and monoglyceride lipase, to produce energy, or the triglycerides are used in cell signaling or lipid synthesis. The measurement of free glycerol release is for evaluating the lytic effect of the glycerides accumulated in fact cells.
In order to measure the lipolytic effect by the peptides of the present invention, the mouse adipose tissue was taken and cultured in 100-mm dish (DMEM) for one day. Thereafter, the adipose tissue was cut into equal weight, transferred onto 24-well plate, treated with the peptides, and cultured for 48-72 hours. Each 100 ul of the medium was collected according to the treatment period, and subjected to glycerol assay.

[8] = test system: pHSL; experiment: Immunohistochemical staining with anti-pHSL antibody (lipolysis induction); assay type: cell-based; settings: mouse adipose tissue, 48-72 hours
Source text: In order to investigate a mechanism by which the peptides of the present invention stimulate the lysis of triglycerides to suppress the lipid accumulation in adipocytes, the effect of the peptides of the present invention on HSL gene expression was examined. HSL enzyme is known as a lipolytic enzyme that breaks down triglycerides into free fatty acids and glycerols when the HSL enzyme breaks down lipids in the adipose tissue.
The mouse adipose tissue was taken and cultured in 100-mm dish (DMEM) for one day. Thereafter, the adipose tissue was cut into equal weight, transferred onto 24-well plate, treated with the peptides, and cultured for 48-72 hours. Each tissue slice was subjected to immunohistochemical staining using anti-pHSL antibody, and photographed by a fluorescent microscope.

[9] = test system: IRS-1; experiment: IRS-1 RT-PCR in insulin resistance conditions (TNF-α); assay type: cell-based; settings: reduced by TNF-α treatment, peptide treatment 16 hours
Description: as §1, §2, §3

[10] = test system: mouse adipose tissue; experiment: Histological analysis, H&E staining (lipolysis induction); assay type: cell-based; settings: as the concentration of the peptide increased
Description: The mouse adipose tissue was taken and cultured in 100-mm dish (DMEM) for one day. Thereafter, the adipose tissue was cut into equal weight, transferred onto 24-well plate, treated with the peptides, and cultured for 48-72 hours. Each tissue slice was subjected to H&E staining. The photo files obtained from microscopic photographing were divided into compartments through Image J, and analyzed using a program that can compare the sizes of each compartment. Through this, the area of the total number of cells can be obtained, and the average area obtained by dividing the area by the total number of cells can also be obtained. The results may be expressed differently depending on the degree of staining. However, correction can be made by adjusting the threshold value in the beginning, and the results were obtained after the cells with relatively small areas from the comparison with the original file were removed.

[11] = 0 min, IP 2 mg/ml 300 ul, Table 6
[12] = 0 min, oral 2 mg/ml 300 ul, Table 6
[13] = 10 min, IP 2 mg/ml 300 ul, Table 6
[14] = 10 min, oral 2 mg/ml 300 ul, Table 6
[15] = 40 min, IP 2 mg/ml 300 ul, Table 6
[16] = 40 min, oral 2 mg/ml 300 ul, Table 6
[17] = 80 min, IP 2 mg/ml 300 ul, Table 6
[18] = 80 min, oral 2 mg/ml 300 ul, Table 6
[19] = 140 min, IP 2 mg/ml 300 ul, Table 6
[20] = 140 min, oral 2 mg/ml 300 ul, Table 6
[21] = 200 min, IP 2 mg/ml 300 ul, Table 6
[22] = 200 min, oral 2 mg/ml 300 ul, Table 6
[23] = 0 min, oral 2 mg/ml 300 ul, Table 5
[24] = 30 min, oral 2 mg/ml 300 ul, Table 5
[25] = 60 min, oral 2 mg/ml 300 ul, Table 5
[26] = 90 min, oral 2 mg/ml 300 ul, Table 5
[27] = 120 min, oral 2 mg/ml 300 ul, Table 5

For “His-Glu-Thr-Phe-Glu (HETFE) [SEQ ID NO: 2]”, the “expression of the lipolysis factor CGI-58” value [1] was “increased”, the “expression of AMPK-α1” value [2] was “again increased” and the expression of adiponectin [3] was “again increased”. For the same substance, the “blood glucose, Mean” value [4, 11] was 155.00, the “blood glucose, individual animal” value [4, 11] was 145.00 and 165.00 and the “blood glucose, Mean” value [4, 12] was 162. For the same substance, the “blood glucose, individual animal” value [4, 12] was 159.00 and 165.00, the “blood glucose, Mean” value [4, 13] was 197.00 and the “blood glucose, individual animal” value [4, 13] was 203.00 and 190.00. For the same substance, the “blood glucose, Mean” value [4, 14] was 191, the “blood glucose, individual animal” value [4, 14] was 188.00 and 193.00 and the “blood glucose, Mean” value [4, 15] was 179.00. For the same substance, the “blood glucose, individual animal” value [4, 15] was 162.00 and 195.00, the “blood glucose, Mean” value [4, 16] was 161 and the “blood glucose, individual animal” value [4, 16] was 164.00 and 157.00. For the same substance, the “blood glucose, Mean” value [4, 17] was 164.00, the “blood glucose, individual animal” value [4, 17] was 170.00 and 158.00 and the “blood glucose, Mean” value [4, 18] was 155. The “blood glucose, individual animal” value [4, 18] was 163.00 and 147.00, the “blood glucose, Mean” value [4, 19] was 123.00 and the “blood glucose, individual animal” value [4, 19] was 130.00 and 115.00. The “blood glucose, Mean” value [4, 20] was 129, the “blood glucose, individual animal” value [4, 20] was 122.00 and 135.00 and the “blood glucose, Mean” value [4, 21] was 112.00. For the same substance, the “blood glucose, individual animal” value [4, 21] was 129.00 and 94.00, the “blood glucose, Mean” value [4, 22] was 122 and the “blood glucose, individual animal” value [4, 22] was 118.00 and 126.00. For the same substance, the “blood glucose increase by glucose” value [4] was “reduced”, the “expression of the glucose transporter GLUT4” value [5] was “again increased” and the “degree of lipid accumulation in the cells” value [6] was “reduced”. For the same substance, the “increase of secretion of glycerol” value ([7]; high-concentration peptide treatment) was 22%, the secretion of glycerol [7] was “increased” and the “expression of hormone sensitive lipase (pHSL)” value [8] was “increased”.

With “Lys-Glu-Arg-Lys-Ser (KERKS) [SEQ ID NO: 1]” the “expression of the lipolysis factor CGI-58” value [1] was “increased”, the “expression of AMPK-α1” value [2] was “again increased” and the “expression of the insulin receptor signaling protein IRS-1” value [9] was “again increased”. For the same substance, the expression of adiponectin [3] was “again increased”, the “blood glucose, Mean” value [4, 23] was 134.67 and the “blood glucose, individual animal” value [4, 23] was 145.00 and 165.00. For the same substance, the “blood glucose, Mean” value [4, 24] was 163.67, the “blood glucose, individual animal” value [4, 24] was 203.00 and 190.00 and the “blood glucose, Mean” value [4, 25] was 142.00. For the same substance, the “blood glucose, individual animal” value [4, 25] was 162.00 and 195.00, the “blood glucose, Mean” value [4, 26] was 142.67 and the “blood glucose, individual animal” value [4, 26] was 170.00 and 158.00. For the same substance, the “blood glucose, Mean” value [4, 27] was 125.67, the “blood glucose, individual animal” value [4, 27] was 130.00 and 115.00 and the “blood glucose increase by glucose” value [4] was “reduced”. For the same substance, the “expression of the glucose transporter GLUT4” value [5] was “again increased”, the “degree of lipid accumulation in the cells” value [6] was “reduced” and the secretion of glycerol [7] was “increased”. For the same substance, the “expression of hormone sensitive lipase (pHSL)” value [8] was “increased”, the lipid area [10] was “reduced” and the number of adipocytes [10] was “increased”.
